The target of assay [1] is T1, c-Met (cytoplasmic domain) (Homo sapiens, UniProt P08581).
T1 construct: 10 ng/mL c-Met (cytoplasmic domain, Invitrogen Corporation #PV3143); purchased Invitrogen Corporation PV3143
As to the kind of experiment: c-Met Kinase Assay (same methods as for ALK, with modifications). The conditions noted are these: 1 μM ATP (Km level); read-out: cMet Activity (c-Met Kinase Inhibition, IC50). Format: biochemical. In outline:
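IC50 values were fitted by variable-slope sigmoidal regression of percent inhibition against log compound concentration. Phosphorylation was read with Eu-N1 PT66 antibody after a 15 min, 37 °C reaction. The reaction was initiated with 10 ng/mL c-Met cytoplasmic domain on wells coated with 10 μg/mL PLC-γ in TBS.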

The target of assay [2] is T2, baculovirus-expressed ALK (Homo sapiens, UniProt Q9UM73).
T2 construct: host or cells: baculovirus expression system
T2 sequence (Q9UM73 19-1620): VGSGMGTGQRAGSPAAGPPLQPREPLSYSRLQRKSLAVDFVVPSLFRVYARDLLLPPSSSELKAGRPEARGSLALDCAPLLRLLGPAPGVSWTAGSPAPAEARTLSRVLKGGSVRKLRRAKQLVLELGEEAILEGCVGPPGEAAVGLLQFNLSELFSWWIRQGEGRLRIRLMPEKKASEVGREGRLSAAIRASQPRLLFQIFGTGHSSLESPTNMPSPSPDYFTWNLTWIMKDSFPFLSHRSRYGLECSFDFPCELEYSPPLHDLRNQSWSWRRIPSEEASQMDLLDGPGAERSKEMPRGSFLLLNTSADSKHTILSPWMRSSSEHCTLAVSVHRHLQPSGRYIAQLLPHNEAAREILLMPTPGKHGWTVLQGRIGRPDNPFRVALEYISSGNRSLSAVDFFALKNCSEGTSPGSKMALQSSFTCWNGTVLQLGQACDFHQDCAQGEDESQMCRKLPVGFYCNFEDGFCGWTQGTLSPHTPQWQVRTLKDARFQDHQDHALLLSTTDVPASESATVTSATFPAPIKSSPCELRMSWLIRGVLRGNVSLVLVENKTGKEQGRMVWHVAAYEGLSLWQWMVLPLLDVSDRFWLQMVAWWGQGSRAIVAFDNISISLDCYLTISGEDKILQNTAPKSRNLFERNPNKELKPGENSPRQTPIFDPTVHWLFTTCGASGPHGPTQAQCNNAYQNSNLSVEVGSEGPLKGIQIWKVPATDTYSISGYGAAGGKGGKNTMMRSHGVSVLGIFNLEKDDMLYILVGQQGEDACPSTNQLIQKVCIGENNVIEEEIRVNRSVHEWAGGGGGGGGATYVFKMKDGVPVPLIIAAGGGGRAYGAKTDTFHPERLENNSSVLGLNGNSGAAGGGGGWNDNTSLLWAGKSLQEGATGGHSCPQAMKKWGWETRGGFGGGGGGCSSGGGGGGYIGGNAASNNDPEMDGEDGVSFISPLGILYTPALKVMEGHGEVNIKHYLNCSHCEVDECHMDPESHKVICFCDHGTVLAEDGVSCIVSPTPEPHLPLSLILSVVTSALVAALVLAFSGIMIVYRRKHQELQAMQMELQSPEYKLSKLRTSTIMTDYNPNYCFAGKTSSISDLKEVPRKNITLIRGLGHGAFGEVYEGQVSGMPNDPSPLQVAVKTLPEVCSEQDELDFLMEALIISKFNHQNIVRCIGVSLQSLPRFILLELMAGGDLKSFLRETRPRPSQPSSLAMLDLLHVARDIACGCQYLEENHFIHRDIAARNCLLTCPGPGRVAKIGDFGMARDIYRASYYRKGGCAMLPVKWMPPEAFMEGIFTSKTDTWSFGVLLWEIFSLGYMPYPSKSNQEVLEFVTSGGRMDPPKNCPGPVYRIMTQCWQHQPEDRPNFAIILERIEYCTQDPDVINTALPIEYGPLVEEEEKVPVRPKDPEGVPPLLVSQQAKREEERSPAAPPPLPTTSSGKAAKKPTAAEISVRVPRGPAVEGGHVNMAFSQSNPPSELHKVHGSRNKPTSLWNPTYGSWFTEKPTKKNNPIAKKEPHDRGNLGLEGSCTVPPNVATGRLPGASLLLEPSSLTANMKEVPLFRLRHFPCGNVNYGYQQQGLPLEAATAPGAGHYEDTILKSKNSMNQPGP
As to the kind of experiment: ALK Kinase Assay (ELISA-type, time-resolved fluorescence). As to conditions: 1 μM ATP (Km level); read-out: ALK Activity (ALK Kinase Inhibition, IC50). Format: biochemical. In outline:
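Wells were coated with phospholipase C-γ at 10 μg/mL in Tris-buffered saline. Adding 30 ng/ml enzyme started the reaction, which ran at 37° C for 15 minutes before Eu-N1 PT66 antibody detection. Percent inhibition versus log10 concentration gave IC50 by variable-slope fit.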
A general note: ELISA stands for enzyme-linked immunosorbent assay.

T1 sequence (P08581 956-1390 limits assumed): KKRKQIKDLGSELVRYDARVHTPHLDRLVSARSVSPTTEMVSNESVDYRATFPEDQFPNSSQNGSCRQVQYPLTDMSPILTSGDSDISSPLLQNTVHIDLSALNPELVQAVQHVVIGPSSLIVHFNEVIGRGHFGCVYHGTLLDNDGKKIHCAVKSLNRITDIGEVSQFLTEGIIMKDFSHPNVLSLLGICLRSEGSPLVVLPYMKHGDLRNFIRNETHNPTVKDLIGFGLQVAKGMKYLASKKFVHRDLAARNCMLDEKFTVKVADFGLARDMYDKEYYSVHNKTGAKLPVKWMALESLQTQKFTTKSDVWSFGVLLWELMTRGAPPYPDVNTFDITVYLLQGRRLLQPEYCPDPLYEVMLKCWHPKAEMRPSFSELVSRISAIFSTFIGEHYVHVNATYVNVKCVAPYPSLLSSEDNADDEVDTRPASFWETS

A word on the IC50: it is the concentration at which inhibition is half-maximal. In the case of `CCN1CCN(CC)c2cc(Nc3ncc(Cl)c(Nc4ccccc4-n4cccn4)n3)ccc2C1` [Example 725, 5-Chloro-N(2)-(1,4-diethyl-2,3,4,5-tetrahydro-1H-benzo[e][1,4]diazepin-8-yl)-N(4)-(2-pyrazol-1-yl-phenyl)-pyrimidine-2,4-diamine], the figures for the IC50 in assay [1] and in assay [2] were 100 to 1000 nM and less than 100 nM, respectively.
On to `CCN1C(=O)CN(CCOC)Cc2cc(OC)c(Nc3ncc(Cl)c(Nc4ccc(N5CCOCC5)cc4OC)n3)cc21` [Example 726, 8-[5-Chloro-4-(2-methoxy-4-morpholin-4-yl-phenylamino)-pyrimidin-2-ylamino]-1-ethyl-7-methoxy-4-(2-methoxy-ethyl)-1,3,4,5-tetrahydro-benzo[e][1,4]diazepin-2-one], for which the IC50 in assay [1] is greater than 10000 nM; in assay [2] it was 100 to 1000 nM.
Taken in the same sequence, the figures for `CCN1C(=O)CN(CC(=O)N(C)C)Cc2cc(OC)c(Nc3ncc(Cl)c(Nc4ccc(N5CCOCC5)cc4OC)n3)cc21` [Example 727, 2-{8-[5-Chloro-4-(2-methoxy-4-morpholin-4-yl-phenylamino)-pyrimidin-2-ylamino]-1-ethyl-7-methoxy-2-oxo-1,2,3,5-tetrahydro-benzo[e][1,4]diazepin-4-yl}-N,N-dimethyl-acetamide] were greater than 10000 nM and 100 to 1000 nM.
On to `CCN1CCN(CC)c2cc(Nc3ncc(Cl)c(Nc4ccccc4S(=O)(=O)C(C)C)n3)ccc2C1` [Example 728, 5-Chloro-N(2)-(1,4-diethyl-2,3,4,5-tetrahydro-1H-benzo[e][1,4]diazepin-8-yl)-N(4)-[2-(propane-2-sulfonyl)-phenyl]-pyrimidine-2,4-diamine], for which the results for the IC50 in assay [1] and in assay [2] were 100 to 1000 nM and less than 100 nM, respectively.
On to `CCN1C(=O)CNCc2cc(OC)c(Nc3ncc(Cl)c(Nc4ccccc4S(=O)(=O)C(C)C)n3)cc21` [Example 729, 8-{5-Chloro-4-[2-(propane-2-sulfonyl)-phenylamino]-pyrimidin-2-ylamino}-1-ethyl-7-methoxy-1,3,4,5-tetrahydro-benzo[e][1,4]diazepin-2-one], for which the IC50 in assay [1] is 1000 to 10000 nM; in assay [2], less than 100 nM.
For `CCN1CCN(CC)c2cc(Nc3ncc(Cl)c(Nc4ccccc4S(=O)(=O)N(C)C)n3)ccc2C1` [Example 730, 2-[5-Chloro-2-(1,4-diethyl-2,3,4,5-tetrahydro-1H-benzo[e][1,4]diazepin-8-ylamino)-pyrimidin-4-ylamino]-N,N-dimethyl-benzenesulfonamide], in that order: less than 100 nM and less than 100 nM.
Taken in the same sequence, the figures for `CCN1CCN(CC)c2cc(Nc3ncc(Cl)c(Nc4ccccc4OCC#N)n3)ccc2C1` [Example 731, {2-[5-Chloro-2-(1,4-diethyl-2,3,4,5-tetrahydro-1H-benzo[e][1,4]diazepin-8-ylamino)-pyrimidin-4-ylamino]-phenoxy}-acetonitrile] were 100 to 1000 nM and less than 100 nM.
Taken in the same sequence, the figures for `CCN1CCN(CC)c2cc(Nc3ncc(Cl)c(Nc4ccc(OC)cc4-n4cccn4)n3)ccc2C1` [Example 732, 5-Chloro-N(2)-(1,4-diethyl-2,3,4,5-tetrahydro-1H-benzo[e][1,4]diazepin-8-yl)-N(4)-(4-methoxy-2-pyrazol-1-yl-phenyl)-pyrimidine-2,4-diamine] were 1000 to 10000 nM and less than 100 nM.
With `CCN1CCN(CC)c2cc(Nc3ncc(Cl)c(Nc4ccc5c(c4)CN(CCOC)CCS5)n3)ccc2C1` [Example 733, 5-Chloro-N(2)-(1,4-diethyl-2,3,4,5-tetrahydro-1H-benzo[e][1,4]diazepin-8-yl)-N(4)-[8-(2-methoxy-ethyl)-6,7,8,9-tetrahydro-5-thia-8-aza-benzocyclohepten-2-yl]-pyrimidine-2,4-diamine], the IC50 in assay [1] was 1000 to 10000 nM; in assay [2], less than 100 nM.
Taken in the same sequence, the figures for `CCN(CCO)Cc1cc(Nc2nc(Nc3ccc4c(c3)N(CC)CCN(CC)C4)ncc2Cl)ccc1F` [Example 734, 2-({5-[5-Chloro-2-(1,4-diethyl-2,3,4,5-tetrahydro-1H-benzo[e][1,4]diazepin-8-ylamino)-pyrimidin-4-ylamino]-2-fluoro-benzyl}-ethyl-amino)-ethanol] were greater than 10000 nM and less than 100 nM.
Taken in the same sequence, the figures for `CCN(CCO)Cc1cc(Nc2nc(Nc3cc4c(cc3OC)CCN(CC(=O)N(C)C)CC4)ncc2Cl)ccc1F` [Example 735, 2-{7-[5-Chloro-4-(3-{[ethyl-(2-hydroxy-ethyl)-amino]-methyl}-4-fluoro-phenylamino)-pyrimidin-2-ylamino]-8-methoxy-1,2,4,5-tetrahydro-benzo[d]azepin-3-yl}-N,N-dimethyl-acetamide] were greater than 10000 nM and less than 100 nM.
On to `CCN1CC(=O)N(CC)c2cc(Nc3ncc(Cl)c(N[C@@H]4CCCC[C@H]4NS(C)(=O)=O)n3)c(OC)cc2C1` [Example 736, N,N-{(1R,2R)-2-[5-Chloro-2-(1,4-diethyl-7-methoxy-2-oxo-2,3,4,5-tetrahydro-1H-benzo[e][1,4]diazepin-8-ylamino)-pyrimidin-4-ylamino]-cyclohexyl}-methanesulfonamide], for which the IC50 in assay [1] was greater than 10000 nM; in assay [2] it was 100 to 1000 nM.
Taken in the same sequence, the figures for `CCN1CC(=O)N(CC)c2cc(Nc3ncc(Cl)c(Nc4ccc(OC)cc4-n4cccn4)n3)c(OC)cc2C1` [Example 737, 8-[5-Chloro-4-(4-methoxy-2-pyrazol-1-yl-phenylamino)-pyrimidin-2-ylamino]-1,4-diethyl-7-methoxy-1,3,4,5-tetrahydro-benzo[e][1,4]diazepin-2-one] were greater than 10000 nM and less than 100 nM.
For `CCN1CC(=O)N(CC)c2cc(Nc3ncc(Cl)c(Nc4ccccc4S(=O)(=O)N(C)C)n3)c(OC)cc2C1` [Example 738, 2-[5-Chloro-2-(1,4-diethyl-7-methoxy-2-oxo-2,3,4,5-tetrahydro-1H-benzo[e][1,4]diazepin-8-ylamino)-pyrimidin-4-ylamino]-N,Ndimethyl-benzenesulfonamide], the values for the IC50 in assay [1] and in assay [2] were greater than 10000 nM and less than 100 nM, respectively.
Taken in the same sequence, the figures for `CCN1CC(=O)N(CC)c2cc(Nc3ncc(Cl)c(N[C@H]4[C@@H](C(N)=O)[C@@H]5C=C[C@H]4C5)n3)c(OC)cc2C1` [Example 739, (1S,2,3R,4R)-3-[5-Chloro-2-(1,4-diethyl-7-methoxy-2-oxo-2,3,4,5-tetrahydro-1H-benzo[e][1,4]diazepin-8-ylamino)-pyrimidin-4-ylamino]-bicyclo(2.2.1)hept-5-ene-2-carboxylic acid amide] were greater than 10000 nM and 100 to 1000 nM.
Taken in the same sequence, the figures for `CCN(CCO)Cc1cc(Nc2nc(Nc3ccc4c(c3OC)CCC(N3CCOCC3)CC4)ncc2Cl)ccc1F` (centres unmarked) [Example 740, 2-([5-[5-Chloro-2-(1-methoxy-7-morpholin-4-yl-6,7,8,9-tetrahydro-5H-benzocyclohepten-2-ylamino)-pyrimidin-4-ylamino]-2-fluoro-benzyl}-ethylamino)-ethanol] were greater than 10000 nM and less than 100 nM.
For `CCN1CC(=O)N(C)c2cc(Nc3ncc(Cl)c(N[C@H]4[C@@H](C(N)=O)[C@@H]5C=C[C@H]4C5)n3)c(OC)cc2C1` [Example 741], in that order: greater than 10000 nM and less than 100 nM.
As for `CCN1CC(=O)N(C)c2cc(Nc3ncc(Cl)c(Nc4ccc(OC)cc4-n4cccn4)n3)c(OC)cc2C1` [Example 742, 8-[5-Chloro-4-(4-methoxy-2-pyrazol-1-yl-phenylamino)-pyrimidin-2-ylamino]-4-ethyl-7-methoxy-1-methyl-1,3,4,5-tetrahydro-benzo[e][1,4]diazepin-2-one], the IC50 is greater than 10000 nM in assay [1] and less than 100 nM in assay [2].
As for `COc1cc2c(cc1Nc1ncc(Cl)c(N[C@H]3[C@@H](C(N)=O)[C@@H]4C=C[C@H]3C4)n1)N(C)C(=O)CNC2` [Example 743, (1S,2S3,R,4R)-3-[5-Chloro-2-(7-methoxy-1-methyl-2-oxo-2,3,4,5-tetrahydro-1H-benzo[e][1,4]diazepin-8-ylamino)-pyrimidin-4-ylamino]-bicyclo[2.2.1]hept-5-ene-2-carboxylic acid amide], the IC50 in assay [1] is greater than 10000 nM; in assay [2] it was less than 100 nM.
For `COc1cc2c(cc1Nc1ncc(Cl)c(N[C@H]3[C@@H](C(N)=O)[C@@H]4C=C[C@H]3C4)n1)N(C)C(=O)CN(CC#N)C2` [Example 744, (1S,2S,3R,4R)-3 [5-Chloro-2-(4-cyanomethyl-7-methoxy-1-methyl-2-oxo-2,3,4,5-tetrahydro-1H-benzo[e][1,4]diazepin-8-ylamino)-pyrimidin-4-ylamino]-bicyclo(2.2.1)hept-5-ene-2-carboxylic acid amide], in that order: greater than 10000 nM and 100 to 1000 nM.
For `CCN1CC(=O)N(C)c2cc(Nc3ncc(Cl)c(N[C@@H]4CCCC[C@H]4NS(C)(=O)=O)n3)c(OC)cc2C1` [Example 745, N-[(1R,2R)-2-[5-Chloro-2-(4-ethyl-7-methoxy-1-methyl-2-oxo-2,3,4,5-tetrahydro-1H-benzo[e][1,4]diazepin-8-ylamino)-pyrimidin-4-ylamino]-cyclohexyl}-methanesulfonamide], in that order: greater than 10000 nM and 100 to 1000 nM.
Taken in the same sequence, the figures for `COc1cc2c(cc1Nc1ncc(Cl)c(N[C@@H]3CCCC[C@H]3NS(C)(=O)=O)n1)N(C)C(=O)CN(CC1CC1)C2` [Example 746, N-{(1R,2R)-2-[5-Chloro-2-(4-cyclopropylmethyl-7-methoxy-1-methyl-2-oxo-2,3,4,5-tetrahydro-1H-benzo[e][1,4]diazepin-8-ylamino)-pyrimidin-4-ylamino]-cyclohexyl}-methanesulfonamide] were greater than 10000 nM and 100 to 1000 nM.

The values are drawn from US8148391B2 (Cephalon, Inc., priority 2006, dated 2012).
